“Also recorded” adds a separate entry of the source.
What was measured:
HS-578T TNBC cell line = test: Caspase 3/7 activation in Hs578T cells; assay type: cell-based; settings: 10 μM, 4 hr
Source text: (§1) FIGS. 7A-7H illustrate the finding that similar death-inducing effects are observed in other triple negative cells lines BT-549 and Hs578T. […] FIG. 7D represents a graphical quantification of caspase3/7 activation by 3D in BT-549. […] FIG. 7H represents a graphical quantification of caspase3/7 activation by 3D in HS-578T.
(§2) In order to explore the broader effects of 3D in the killing of TNBC cells, the experiments reported in Example 2 were repeated in 2 additional cells lines BT-549 and Hs578T.

MDA-MB-231 cells [1] = test: ROS detection (Muse oxidative stress kit) in MDA-MB-231 cells; assay type: cell-based, human; settings: 10 μM, 4 hrs
Source text: (§3) FIG. 4B is a set of images of MDA-MB-231 (TNBC cells) co-cultured with MCF-10A (normal mammary cells) after exposure to DMSO control (left) as well as 3D (right). FIGS. 5A-5E illustrate the finding that 3D induces a rise in reactive oxygen species (ROS) inside TNBC cells and not normal healthy cells.
(§4) Manipulation of reactive oxygen species (ROS) levels is one potential mechanistic target for anti-cancer molecules because high levels of ROS can promote cell death. […] Levels of ROS were detected by assessing the conversion of a non-fluorescent compound (dihydroethidium) to its oxidized metabolite (ethidium bromide) in the presence of intracellularly accumulated ROS following 3D administration using a Muse oxidative stress kit.

BT-549 TNBC cell line = test: Caspase 3/7 activation in BT-549 cells; assay type: cell-based; settings: 10 μM, 4 hr
Source text: as §1, §2

MDA-MB-231 cells [2] = test: Caspase 3/7 activity assay in MDA-MB-231 cells; assay type: cell-based, human; settings: for caspase 3/7 positive cells: DMSO 6.4±1.1%, n=3
Procedure: To identify mechanisms involved in the apoptotic death induced by compound 3D the iodine group (3D) was substituted by a fluorine group (3C) and a caspase 3/7 activity assay kit was utilized, which detects downstream effector apoptosis-causing caspases to assess death of TNBC cells. […] Quantitatively, 49.5±8.3% of cells were caspase 3/7 positive when treated with compound 3D compared to only 6.4±1.1% in the DMSO control group p<0.005 (FIG. 3D).
Further substitution experiments were conducted, replacing the para iodine with chlorine or bromine, as well as experiments wherein the sulfone was removed. To help identify mechanisms involved in the apoptotic death induced by compound 3D, the iodine group was substituted with chlorine or bromine. A caspase 3/7 activity assay kit was used to detect downstream effector apoptosis-causing caspases to assess death of TNBC cells. […] Additionally, when a compound was generated lacking the sulfonyl group, all cytotoxic effects of 3D on TNBC cells was abolished.

[3] = test system: MCF-10A (normal mammary cells); test: Annexin V assay in normal MCF-10A mammary cells; assay type: cell-based; settings: normal MCF-10A cells, 10 μM, n=5
Source text: (§5) The effects of compound 3D on survival of MCF-10A (normal mammary cells) were thus examined.

MDA-MB-231 cells [4] = test: Quantitative annexin V death assay (flow cytometry) in MDA-MB-231 cells; assay type: cell-based, human; settings: n=4-7; for total annexin V-positive cells: DMSO 13.5±2.2%; for live cell population: DMSO 86.4±2.2%
Procedure: To confirm what type of cell death was responsible for the observed activity, a quantitative annexin V death assay was performed to quantify the amount of necrosis (non-specific toxicity) vs apoptosis (programmed cell death) induced by compound 3D. […] Compound 3D decreased live cell population from 86.4±2.2% (DMSO) to 48.1±3.0% (3D: p<0.001) and increased total annexin V-positive cells from 13.5±2.2% (DMSO) to 51.4±3.1% (3D: p<0.001).

H2AX (P-H2AX ser139) = test: Western blot of H2AX phosphorylation in MDA-MB-231 cells; assay type: cell-based, human; settings: 4 hr treatment
Source text: (§6) Effects of 3D on DNA damage in MDA-MB-231 cells was compared to a matching dose of DMSO vehicle.

[5] = test system: MCF-10A cells co-cultured with MDA-MB-231 cells; test: Co-culture of MCF-10A and MDA-MB-231 cells, fluorescence microscopy; assay type: cell-based, human; settings: 1:1 MCF-10A (mcherry red) and MDA-MB-231 (GFP-green); 10 μM, 4 hrs; n=3
Procedure: To validate the selective nature of 3D towards cancer cells, normal human mammary cells were co-cultured (MCF-10A) with human TNBC cells (MDA-MB-231) in the same culture dish (FIG. 4B) and incubated with 3D to assess the compound's selectivity. This experiment was done by plating a 1:1 ratio of MCF-10A cells (mcherry red) and MDA-MB-231 cells (GFP-green) and challenging them with DMSO or 3D (10 μM) for 4 hrs as described in Example 2. Following the treatments, pictures were acquired at 20× using the EVOS-Fl microscope. […] This co-culture was repeated 3 separate times on different passages (n=3).

ATM (P-ATM ser1981) = test: Western blot of ATM phosphorylation in MDA-MB-231 cells; assay type: cell-based, human; settings: 4 hr treatment
Source text: as §6

[6] = test system: MCF-10A (normal mammary cells); test: Cell morphology of normal MCF-10A cells after treatment; assay type: cell-based; settings: 10 μM, 4 hrs
Source text: as §5

MDA-MB-231 cells [7] = test: Colony formation of MDA-MB-231 cells with and without radiation; assay type: cell-based, human; settings: 2 Gray radiation dose
Procedure: FIG. 1A is a set of images illustrating colonies of MDA-MB-231 cells exposed to DMSO (control) and compound 3D (10 μM, 4 hrs).
FIG. 1B reports the results depicted in FIG. 1A as a bar graph.
Compound 3D was previously shown to radiosensitize ER-positive breast cancer and prostate cancer cells (U.S. Pat. No. 8,541,476). This compound was then tested to see if it would radiosensitize aggressive TNBC cells such as MDA-MB-231.

prostate cancer cells = settings: U.S. Pat. No. 8,541,476; cited from earlier work
MCF-10A cells = test: ROS detection (Muse oxidative stress kit) in normal MCF-10A cells; assay type: cell-based, human; settings: 10 μM, 4 hrs, p=0.9
Source text: as §3, §4

[8] = test system: ER-positive breast cancer cells; settings: U.S. Pat. No. 8,541,476; cited from earlier work
MDA-MB-231 cells [9] = test: Cell morphology under phase contrast microscope, MDA-MB-231 cells; assay type: cell-based, human
Source text: FIGS. 2B-2G are images of MDA-MB-231 cells treated with DMSO (control), NS-123 and 3D (FIGS. 2B, 2D and 2F) under a phase contrast microscope (10×) and apoptosis profiles for the respective images (FIGS. 2C, 2E and 2G) determined using flow cytometry.
To further investigate the type of cell death induced by treatment of TNBC cells with 3D, its activity was compared to the original parent radiosensitizing compound NS-123 (4-bromo-3-nitrophenyl propan-1-one). FIG. 2A depicts the chemical structures of both the parent NS-123 (left) and compound 3D (right) highlighting the substitution with iodide and sulfonyl moieties in 3D structure compared to a bromide and carbonyl in the original radiosensitizing NS-123.

Q: With `O=[N+]([O-])c1ccccc1I` [1-iodo-2-nitrobenzene, reference compound] as the compound, how does the “caspase 3/7 activation” value (HS-578T TNBC cell line) read?
A: Its value is “inactive”.

Q: And the “ROS accumulation in TNBC cells” value (MDA-MB-231 cells [1])?
A: Its value is “inactive”.

Q: What about the “caspase 3/7 activation” value (BT-549 TNBC cell line) of the same compound?
A: The value was “inactive”.

Q: With `CCS(=O)(=O)c1ccc(F)c([N+](=O)[O-])c1` [Compound 3C, 4-(Ethylsulfonyl)-1-fluoro-2-nitrobenzene] as the compound, how does the “apoptosis / killing of TNBC cells by caspase 3/7 activation” value (MDA-MB-231 cells [2]) read?
A: Its value is “very low rates of apoptosis”.

Q: And the “caspase 3/7 positive cells” value (MDA-MB-231 cells [2])?
A: Its value is 7.9±3.0%.

Q: Which total apoptosis ([3]; DMSO 12.7±5.3%) does the source give for `CCS(=O)(=O)c1ccc(I)c([N+](=O)[O-])c1` [Compound 3D, 4-(Ethylsulfonyl)-1-iodo-2-nitrobenzene] here?
A: The total apoptosis was 12.2±3.2%.

Q: And the cell viability ([3]; DMSO 85.6±5.9%)?
A: The cell viability was 86.9±3.3%.

Q: What about the “total annexin V-positive cells” value (MDA-MB-231 cells [4]) of the same compound?
A: Its value is 51.4±3.1%.

Q: What about the live cell population (MDA-MB-231 cells [4]) of the same compound?
A: Its live cell population is 48.1±3.0%.

Q: And the “apoptosis / killing of TNBC cells by caspase 3/7 activation” value (MDA-MB-231 cells [2])?
A: The value was “induced specific caspase 3/7 activation; also recorded: high rates of apoptosis”.

Q: What about the early apoptosis population (MDA-MB-231 cells [2]; DMSO 0.7±0.1%) of the same compound?
A: Its early apoptosis population is 0.9±0.2%.

Q: What about the “caspase 3/7-positive cells in late apoptosis phase” value (MDA-MB-231 cells [2]; DMSO 5.8±1.0%) of the same compound?
A: Its value is 47.4±8.5%.

Q: What about the “caspase 3/7 positive cells” value (MDA-MB-231 cells [2]) of the same compound?
A: Its value is 49.5±8.3%.

Q: And the “caspase 3/7 activation” value (HS-578T TNBC cell line)?
A: Its value is “increased caspase 3/7 activation”.

Q: And the “total H2AX” value (H2AX (P-H2AX ser139))?
A: The value was “increased slightly”.

Q: And the “phosphorylated levels of H2AX (P-H2AX ser139)” value (H2AX (P-H2AX ser139); vs DMSO)?
A: Its value is “significant increase; also recorded: induction”.

Q: What about the “selectivity of apoptotic death in co-culture” value [5] of the same compound?
A: The value was “apoptotic death selectively occurred in the green cells (TNBC) while the red cells (normal) remained healthy”.

Q: What about the “total ATM” value (ATM (P-ATM ser1981)) of the same compound?
A: The value was “remains unchanged”.

Q: And the “phosphorylated levels of ATM (P-ATM ser1981)” value (ATM (P-ATM ser1981); vs DMSO)?
A: Its value is “significant increase; also recorded: induction”.

Q: What about the “effect on morphology / health of normal cells” value [6] of the same compound?
A: Its value is “morphology remains intact; also recorded: no observable effect on the health of non-TNBC cells”.

Q: What about the “radiosensitizing effect on colony formation” value (MDA-MB-231 cells [7]) of the same compound?
A: Its value is “failed to enhance this action further; also recorded: no radiosensitizing effects”.

Q: What about the radiosensitization (prostate cancer cells) of the same compound?
A: The radiosensitization was “radiosensitize”.

Q: What about the “ROS accumulation in normal cells” value (MCF-10A cells) of the same compound?
A: Its value is “lacking any significant effects; also recorded: no significant increase”.

Q: And the “ROS accumulation in TNBC cells” value (MDA-MB-231 cells [1])?
A: Its value is “significantly raised the levels of ROS”.

Q: What about the “increase in ROS accumulation compared to DMSO” value (MDA-MB-231 cells [1]; p=0.00005) of the same compound?
A: Its value is about 3 fold.

Q: What about the “caspase 3/7 activation” value (BT-549 TNBC cell line) of the same compound?
A: Its value is “increased caspase 3/7 activation; also recorded: induced an activated caspase-3/7 population”.

Q: What about the radiosensitization [8] of the same compound?
A: Its radiosensitization is “radiosensitize”.

Q: And the “cell appearance under phase contrast microscope (10×)” value (MDA-MB-231 cells [9])?
A: The value was “rounded and unhealthy; also recorded: noticeably misshapen”.

Q: For `CCC(=O)c1ccc(Br)c([N+](=O)[O-])c1` [NS-123, 4-bromo-3-nitrophenyl propan-1-one, reference compound], which “total annexin V-positive cells” value (MDA-MB-231 cells [4]) is on record?
A: The value was 11.6±2.4%.

Q: What about the live cell population (MDA-MB-231 cells [4]) of the same compound?
A: Its live cell population is 88.3±2.4%.

Q: What about the “cell appearance under phase contrast microscope (10×)” value (MDA-MB-231 cells [9]) of the same compound?
A: The value was “normal healthy features”.

— patent US20180280319A1, “COMPOUNDS AND COMPOSITIONS FOR TREATMENT OF BREAST CANCER” (UNIVERSITY OF THE SCIENCES, priority 2017, published 2018)
